Measured values as given in patent US7566737B2 (Genfit, priority 2002, dated 2009).

Tests used:
[1] = tested on: Human THP-1 monocytes differentiated in macrophages; experiment: Anti-inflammatory properties: cytokine secretion by LPS-stimulated macrophages; format: cell-based; settings: pre-treated 24 hours, LPS 6 hours, vs non-treated cells
Description: TNF-α (tumor necrosis factor alpha) and IL-6 (interleukin-6) are two important markers of the inflammatory response to stress. The anti-inflammatory property of the compound 29 was evaluated as follows:
Human THP-1 monocytes were differentiated in macrophages by a 72 h incubation with 30 ng/ml of PMA (Phorbol Myristate Acetate). Differentiated macrophages were then treated with the inventive compound 29 at different concentrations during 24 h in culture medium without serum. Stimulation with LPS 1 μg/ml was finally performed during 6 hours (LPS bacterial endotoxin (Escherichia coli 0111 :B4) (Sigma, France) was reconstituted in distilled water).
TNF-α and IL-6 secretion were quantified in the culture medium of LPS-stimulated cells with TNF-α and IL6 ELISA kits (Immunotech, France).

[2] = tested on: C57BLKS-m Lepr^db transgenic mice; experiment: Antidiabetic effect on insulin and glucose; format: in vivo, mouse; settings: 0.1 to 100 mg/Kg/day for 28 days
Description: Genetically modified C57BLKS-m Lepr^db mice were used to asses antidiabetic effect of the inventive compounds. Mice were randomized according to their plasma lipid, glucose and insulin contents. Treatments were administered once daily by gavage (10 ml/kg) for the duration of the treatment. For oral administrations, the drugs were suspended in CMC 1% or CMC 1%+Tween 80 0.1%. The plasma glucose was measured using a kit reagent from Biomerieux (France). The plasma insulin was measured using a solid phase two-site enzyme immunoassay from Crystal Chem Inc. (USA). The results are exemplified in FIGS. 5-1 to 5-4 which illustrate the activity of inventive compounds 29 and 62 on glucose and insulin.

[3] = tested on: Human normal primary fibroblasts; experiment: Antioxidant properties on cell cultures (carboxy-H2DCFDA fluorescence, AAPH stress), fibroblasts; format: cell-based; settings: 25 μM for 24 h, AAPH 750 μM
Description: The reduction in the intensity of the emitted fluorescence signal was determined in cells treated with the compounds in the following manner.
Prior to stress the cells with an oxidative agent such as AAPH (CAS number 2997-92-4), cells are incubated with compounds of interest at 25 μM for 24 h. Then the culture medium is discarded and cells are rinsed two times with PBS. Cells are then incubated 30 min at 37° C. with a cell-permeant indicator for reactive oxygen species that is nonfluorescent until the acetate groups are removed by intracellular esterases and oxidation occurs within the cell 5-(and-6)-carboxy-2′,7′-dichlorodihydrofluorescein diacetate (carboxy-H2DCFDA). The probes are prepared in PBS and incubated at the final concentration of 25 μM. After the incubation with the probe, cells are rinsed and incubated another 30 min with the oxidative solution containing AAPH at 750 μM in culture medium without phenol red and serum.
The fluorescence is then measured with a fluorimeter with the following wavelength, […].
Two different cell types have been tested with the inventive compounds. Human normal primary fibroblasts and HaCat cells which are a human keratinocyte cell line.

human PPARα = target: T1, human PPARα (Homo sapiens, UniProt Q07869); experiment: PPARα/Gal4 transactivation system; format: cell-based
T1 construct: expressed in transfected cells; host or cells: RK13 or COS-7
T1 sequence (Q07869 239-466 limits assumed): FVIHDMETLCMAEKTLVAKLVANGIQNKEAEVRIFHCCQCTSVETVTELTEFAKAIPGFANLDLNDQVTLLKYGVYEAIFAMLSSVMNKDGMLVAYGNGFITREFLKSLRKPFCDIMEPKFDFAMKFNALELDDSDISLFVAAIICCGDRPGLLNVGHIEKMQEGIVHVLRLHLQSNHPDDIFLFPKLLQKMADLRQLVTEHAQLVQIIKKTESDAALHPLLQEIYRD
Description: PPAR activation was tested in vitro in RK13 or COS-7 fibroblast cell lines by measuring the transcriptional activity of chimeras composed of the DNA binding domain of the yeast Gal4 transcription factor and the ligand binding domain of the different PPARs. These latter results were then confirmed in cell lines according to the following protocols.
Culture protocols: RK13 were from ECACC (Porton Down, UK) and were grown in DMEM medium supplemented with 10% (V/V) fetal calf serum, 100 U/ml penicillin (Gibco, Paisley, UK) and 2 mM L-glutamine (Gibco, Paisley, UK). COS-7 cells were from ATCC and were grown in DMEM medium supplemented with 10% (V/V) fetal calf serum, 1% penicillin/streptomycine (Biochrom, AG), 1% of amino acids (Gibco) and 1% sodium pyruvate (Gibco).
The culture medium was changed every two days. Cells were kept at 37° C. in a humidified 95% air/5% CO2 atmosphere.
Description of plasmids used for transfection: The plasmids Gal4(RE)_TkpGL3, pGal4-hPPARα, pGal4-hPPARγ, pGal4-hPPARδ and pGal4-φ have been described in the literature (Raspe E et al., 1999). The pGal4-hPPARα, pGal4-hPPARγ and pGal4-hPPARδ constructs were obtained by cloning into the pGal4-φ vector PCR-amplified DNA fragments corresponding to the DEF domains of the human PPARs nuclear receptors.
Transfection of RK13: RK13 cells were seeded in 24-well culture dishes at 5×10^4 cells/well and transfected for 2 hours with the reporter plasmid Gal4(RE)_TkpGL3 (50 ng/well), the expression vectors pGal4-φ, pGal4-hPPARα, pGal4-hPPARγ and pGal-hPPARδ (100 ng/well) and the transfection efficiency control vector pRL-CMV (1 ng/well) according to the previously described protocol (Raspe E, Madsen L, Lefebvre A M, Leitersdorf I, Gelman L, Peinado-Onsurbe J, Dallongeville J, Fruchart J C, Berge R and Staels B, 1999), then incubated for 36 hours with the test compounds. RK13 cells were incubated with the different compounds at concentrations of 10, 30 and 100 μM or 1, 10 and 100 μM for 24 hours. At the end of the experiment, the cells were lysed (Gibco, Paisley, UK) and luciferase activity was determined with a Dual-Luciferase™ Reporter Assay System kit (Promega, Madison, Wis., USA) according to the supplier's instructions. The protein content of the cell extracts was then measured with the Bio-Rad Protein Assay (Bio-Rad, Munich, Germany) as directed by the supplier.
Transfection of COS7: Cells in suspension are transfected, in the presence of 10% (V/V) fetal calf serum, with 150 ng of DNA per well with a pGal4-PPAR/Gal4(RE)_TkpGL3 ratio of 1/10. Cells are then seeded in 96 well plates (4×10^4 cells/well) and incubated for 24 hours at 37° C. Activation with compounds is performed on 24 hours at 37° C. in culture medium without serum. At the end of the activation period, cells are lysed and luciferase activity is determined, using the Steady Glow Luciferase Kit (Promega), according to the supplier's instructions.

Compound | IL-6 secretion ([1]; 0.1, 1 and 10 μM) | TNF-α secretion ([1]; 1 and 10 μM) | plasma glucose level [2] | plasma insulin level [2] | antioxidant properties on cell cultures (in words) [3] | induction factor (luminescent signal relative to untreated cells) (human PPARα; 1 μM) | induction factor (luminescent signal relative to untreated cells) (human PPARα; 10 μM) | maximum induction factor (human PPARα; at the 10 or 1 μm concentrations)
CSc1ccc(C(=O)/C=C/c2cc(C)c(OC(C)(C)C(=O)O)c(C)c2)cc1 [Compound 29, 1-[4-methylthiophenyl]-3-[3,5-dimethyl-4-carboxydimethylmethyloxyphenyl]prop-2-en-1-one] | decrease | decrease | decrease | decrease | antioxidant properties | 28 | 25 | 
Cc1cc(/C=C/C(=O)c2ccc(Br)cc2)cc(C)c1OC(C)(C)C(=O)O [Compound 41, 1-[4-bromophenyl]-3-[3,5-dimethyl-4-carboxydimethylmethyloxyphenyl]prop-2-en-1-one] |  |  |  |  | antioxidant properties |  |  | 34
